Reference: patent publication US20240150365A1 (Hotspot Therapeutics, Inc., priority 2022, published 2024)

Legend:
MALT1 = target: T1, MALT1 (Homo sapiens, UniProt Q9UDY8); test: MALT-1 Fluorogenic Peptide Cleavage Assay (MALT1 inhibition assay); assay type: biochemical; settings: Avi-tagged FL MALT-1, Ac-LRSR-AMC peptide substrate, 30 min pre-incubation, 90 min reaction
T1 construct: Avi-tagged FL MALT-1 (Pharmaron, stored at −70° C.); Avi tag
T1 sequence (Q9UDY8 1-824): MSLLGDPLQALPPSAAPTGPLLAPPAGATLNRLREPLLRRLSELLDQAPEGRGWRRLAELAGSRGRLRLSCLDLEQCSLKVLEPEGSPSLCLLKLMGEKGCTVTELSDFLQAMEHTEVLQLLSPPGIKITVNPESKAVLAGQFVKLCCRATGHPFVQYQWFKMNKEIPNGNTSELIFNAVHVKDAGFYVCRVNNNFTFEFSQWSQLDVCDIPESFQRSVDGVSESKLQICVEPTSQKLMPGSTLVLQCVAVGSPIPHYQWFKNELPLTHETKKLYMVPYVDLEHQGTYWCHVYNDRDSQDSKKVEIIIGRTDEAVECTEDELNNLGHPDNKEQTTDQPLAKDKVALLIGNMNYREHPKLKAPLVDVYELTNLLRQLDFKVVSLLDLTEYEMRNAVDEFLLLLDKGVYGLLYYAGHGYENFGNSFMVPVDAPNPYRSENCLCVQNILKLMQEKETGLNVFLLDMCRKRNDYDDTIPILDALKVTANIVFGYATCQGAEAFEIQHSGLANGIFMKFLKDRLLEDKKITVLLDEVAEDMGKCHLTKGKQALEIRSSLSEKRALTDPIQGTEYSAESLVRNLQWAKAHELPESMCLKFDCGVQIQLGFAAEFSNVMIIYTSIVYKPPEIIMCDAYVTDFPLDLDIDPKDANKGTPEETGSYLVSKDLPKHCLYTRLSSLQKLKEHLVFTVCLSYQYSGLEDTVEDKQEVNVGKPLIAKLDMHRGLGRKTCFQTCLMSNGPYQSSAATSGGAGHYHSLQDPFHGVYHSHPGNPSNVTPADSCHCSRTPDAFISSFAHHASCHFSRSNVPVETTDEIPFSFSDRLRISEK
How it was run: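 Avi-tagged full-length MALT1 pre-incubated 30 min with compound (2% DMSO final), then cleavage of Ac-LRSR-AMC followed over 90 min at room temperature. AMC fluorescence read at 342/441 nm; % inhibition fitted to sigmoidal curves for IC50.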

NF-kB = NF-kB reporter assay in Jurkat cells stimulated with aCD3/aCD28/PMA; assay type: cell-based; settings: Homo sapiens, Jurkat, Jurkat cells, 1 hr compound incubation, aCD3/aCD28/PMA stimulation 4 hr, One-Glo readout; read-out: NF-kB Reporter Assay IC50
How it was run: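 Jurkat cells (25,000/well, serum-free RPMI 1640) preincubated 1 hr at 37° C with serially diluted compound, then stimulated with aCD3/aCD28/PMA (final 5 μg/mL, 5 μg/mL, 0.03 μg/mL) for 4 hr. Reporter luminescence read with One-Glo; IC50 derived.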

Structure (SMILES)	IC50 (MALT1) [nM]	IC50 (NF-kB) [nM]
COCCn1ncc2cccc(NS(=O)(=O)c3ccc(-n4cc(C)cn4)nc3)c21 [Example I-217, N-(1-(2-Methoxyethyl)-1H-Indazol-7-yl)-6-(4-Methyl-1H-Pyrazol-1-yl)Pyridine-3-Sulfonamide]	> 2500	> 2500
Cc1nc(C)c(-c2ccc(S(=O)(=O)Nc3cccc4cnn(C)c34)cn2)s1 [Example I-103, 6-(2,4-Dimethylthiazol-5-yl)-N-(1-Methyl-1H-Indazol-7-yl)Pyridine-3-Sulfonamide]	400 to 1000	< 400
